Measured values: PubChem BioAssay AID180 (DTP/NCI, 2004)
Several values for one entry are separate records, joined by “and”; a condition that tells them apart may be missing. Identical values can stand only once.

Test system: BDF1 mice, Adenocarcinoma 755 s.c., tumor weight T/C
Assay: NCI In Vivo Anticancer Drug Screen. Data for tumor model Adenocarcinoma 755 (subcutaneous) in B6D2F1 (BDF1) mice
Settings: endpoint: mean tumor weight, higher = larger tumour
Summary of the method: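 Readout: T/C, i.e. treated-group measurement over vehicle-control measurement. Endpoint is survival or tumor size in tumor-bearing mice given compound.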

[1] = dose: 25.0 mg/kg/injection, schedule: Q01DX011 (ip), vehicle: carboxymethylcellulose (CMC)
[2] = dose: 50.0 mg/kg/injection, schedule: Q01DX011 (ip), vehicle: carboxymethylcellulose (CMC)

In the case of `Nc1nc([S-])c2nc[nH]c2n1.Nc1nc([S-])c2nc[nH]c2n1.Nc1nc([S-])c2nc[nH]c2n1.[Pt]`, the T/C (dose: 1.0 mg/kg/injection, schedule: Q01DX011 (ip), vehicle: carboxymethylcellulose (CMC)) is reported as 44 % of control, the T/C (dose: 1.3 mg/kg/injection, schedule: Q01DX011 (ip), vehicle: carboxymethylcellulose (CMC)) is reported as 65 % of control and the T/C (dose: 2.0 mg/kg/injection, schedule: Q01DX011 (ip), vehicle: carboxymethylcellulose (CMC)) is reported as 19 % of control. The T/C (dose: 2.5 mg/kg/injection, schedule: Q01DX011 (ip), vehicle: carboxymethylcellulose (CMC)) was 12 % of control and the T/C (dose: 4.0 mg/kg/injection, schedule: Q01DX011 (ip), vehicle: carboxymethylcellulose (CMC)) was 2 % of control.

`NC(=O)OCCI` was tested, and the T/C (dose: 3.1 mg/kg/injection, schedule: Q01DX011 (ip), vehicle: methylcellulose (MC)) was 47 % of control, the T/C (dose: 12.5 mg/kg/injection, schedule: Q01DX011 (ip), vehicle: methylcellulose (MC)) was 52 % of control and 61 % of control and the T/C (dose: 25.0 mg/kg/injection, schedule: Q01DX011 (ip), vehicle: methylcellulose (MC)) was 31 % of control and 47 % of control. For the same molecule, the T/C (dose: 50.0 mg/kg/injection, schedule: Q01DX011 (ip), vehicle: methylcellulose (MC)) was 7 % of control and the T/C (dose: 100.0 mg/kg/injection, schedule: Q01DX011 (ip), vehicle: methylcellulose (MC)) was 1 % of control.

`CC(=O)O[C@]1(C(C)=O)CC[C@H]2[C@@H]3C[C@H](C)C4=CC(=O)CC[C@]4(C)[C@H]3CC[C@@]21C` was tested, and the T/C (dose: 100.0 mg/kg/injection, schedule: Q01DX011 (sc), vehicle: steriod suspending solution) was 89 % of control and the T/C (dose: 300.0 mg/kg/injection, schedule: Q01DX011 (sc), vehicle: steriod suspending solution) was 78 % of control.

In the case of `O=C(CCBr)N1CCN(C(=O)CCBr)CC1`, the T/C (dose: 5.6 mg/kg/injection, schedule: Q01DX011 (ip), vehicle: methylcellulose (MC)) is reported as 103 % of control, the T/C (dose: 11.25 mg/kg/injection, schedule: Q01DX011 (ip), vehicle: methylcellulose (MC)) is reported as 89 % of control and 94 % of control and the T/C (dose: 15.0 mg/kg/injection, schedule: Q01DX011 (ip), vehicle: carboxymethylcellulose (CMC)) is reported as 56 % of control. For the same molecule, the T/C (dose: 22.5 mg/kg/injection, schedule: Q01DX011 (ip), vehicle: methylcellulose (MC)) was 40 % of control and 65 % of control, the T/C (dose: 30.0 mg/kg/injection, schedule: Q01DX011 (ip), vehicle: carboxymethylcellulose (CMC)) was 37 % of control and the T/C (dose: 45.0 mg/kg/injection, schedule: Q01DX011 (ip), vehicle: methylcellulose (MC)) was 51 % of control. For the same molecule, the T/C (dose: 60.0 mg/kg/injection, schedule: Q01DX011 (ip), vehicle: carboxymethylcellulose (CMC)) was 24 % of control and the T/C (dose: 90.0 mg/kg/injection, schedule: Q01DX011 (ip), vehicle: methylcellulose (MC)) was 12 % of control.

`Fc1ccccc1CSc1ncnc2c1ncn2C1CCCCO1` (configuration not stated) was tested, and the T/C (dose: 30.0 mg/kg/injection, schedule: Q01DX011 (ip), vehicle: methylcellulose (MC)) was 21 % of control.

`CCOC(O)C(F)(F)F` (configuration not stated) was tested, and the T/C (dose: 22.0 mg/kg/injection, schedule: Q01DX011 (ip), vehicle: methylcellulose (MC)) was 110 % of control, the T/C [1] was 83 % of control and the T/C (dose: 44.0 mg/kg/injection, schedule: Q01DX011 (ip), vehicle: methylcellulose (MC)) was 78 % of control. For the same molecule, the T/C [2] was 50 % of control, the T/C (dose: 88.0 mg/kg/injection, schedule: Q01DX011 (ip), vehicle: methylcellulose (MC)) was 30 % of control and the T/C (dose: 100.0 mg/kg/injection, schedule: Q01DX011 (ip), vehicle: carboxymethylcellulose (CMC)) was 32 % of control.

With `C[C@]12C=CC(=O)C=C1CC[C@@H]1[C@@H]2[C@@H](O)C[C@@]2(C)[C@H]1CC[C@]2(O)C(=O)COC(=O)CCC1CCCC1` the T/C (dose: 3.1 mg/kg/injection, schedule: Q01DX011 (sc), vehicle: steriod suspending solution) was 64 % of control, the T/C (dose: 6.25 mg/kg/injection, schedule: Q01DX011 (sc), vehicle: steriod suspending solution) was 43 % of control and the T/C (dose: 6.25 mg/kg/injection, schedule: Q01DX011 (sc), vehicle: water) was 47 % of control. For the same molecule, the T/C (dose: 12.5 mg/kg/injection, schedule: Q01DX011 (sc), vehicle: steriod suspending solution) was 34 % of control, the T/C (dose: 12.5 mg/kg/injection, schedule: Q01DX011 (sc), vehicle: water) was 32 % of control and the T/C (dose: 25.0 mg/kg/injection, schedule: Q01DX011 (sc), vehicle: steriod suspending solution) was 22 % of control. The T/C (dose: 25.0 mg/kg/injection, schedule: Q01DX011 (sc), vehicle: water) was 12 % of control and the T/C (dose: 50.0 mg/kg/injection, schedule: Q01DX011 (sc), vehicle: steriod suspending solution) was 13 % of control.

`CCCCCCn1cnc2c(=S)nc[nH]c21` was tested, and the T/C (dose: 63.0 mg/kg/injection, schedule: Q01DX011 (ip), vehicle: carboxymethylcellulose (CMC)) was 50 % of control and the T/C (dose: 500.0 mg/kg/injection, schedule: Q01DX011 (ip), vehicle: carboxymethylcellulose (CMC)) was 5 % of control and 13 % of control.

`COC(=O)C1C2CC3c4[nH]c5cc(OC)ccc5c4CCN3CC2CC(OC(=O)c2cc(OC)c(OC)c(OC)c2)C1OC` (configuration not stated) was tested, and the T/C (dose: 0.5 mg/kg/injection, schedule: Q01DX011 (ip), vehicle: saline) was 109 % of control and the T/C (dose: 2.0 mg/kg/injection, schedule: Q01DX011 (ip), vehicle: saline) was 101 % of control.

With `O=S(=O)(NCc1ccccn1)c1ncnc2nc[nH]c12` the T/C (dose: 12.0 mg/kg/injection, schedule: Q01DX011 (ip), vehicle: carboxymethylcellulose (CMC)) was 119 % of control, the T/C [1] was 101 % of control and the T/C [2] was 99 % of control.
